The subject of one data set is Staphylococcus aureus. As for the experimental part: (§1) Antimicrobial activities of both PaD and Ct_PaD were determined in a modified microdilution assay as described previously for other β-defensins such as peptides. The assay was performed in sterile polypropylene 96-well plates that prevent peptide binding (Greiner, Frickenhausen, Germany). From a bacterial isolate, a single colony was seeded in Mueller Hinton Broth (MHB, Condalab, Torrejón de Ardoz, Spain) and allowed to grow at 37 °C in an incubator with orbital shaking at 250 rpm overnight. Subsequently, a new bacterial culture was seeded from the overnight culture and allowed to grow to an OD of 0.5 at 600 nm. The bacterial suspension was diluted to a final concentration of 5 × 10^5 CFU (colony formation unit)/mL in sterile 10 mM phosphate buffer (PB: 2.46 mM NaH2PO4, 7.5 mM Na2HPO4, pH 7.4), used as the working culture. Next, 50 μL of 2-fold serial dilutions of each peptide in PB were placed on the plates to provide a final 0.097–100 µM concentration range after which 50 μL of working culture was applied to each well. The plate was first incubated for 2 h at 37 °C, then 100 μL of MHB 2× was added to each well and was incubated at 37 °C overnight with shaking. The growth of bacteria was measured by the optical density at 600 nm in a microplate reader (Tecan, Männedorf, Switzerland). The minimum inhibitory concentration (MIC) was defined as the minimum peptide concentration in which the microorganism is unable to grow. The results are the average of three independent studies. […] MBC was defined for each peptide as the lowest concentration with no bacterial growth detected.

The subject of another data set is Pseudomonas aeruginosa. As to the method:
as §1

In the next data set the test system is Escherichia coli. As for the experimental part:
as §1

For a further data set, the system named is Acinetobacter baumannii. As to the method: as §1
Another data set relates to Micrococcus luteus. As for the experimental part:
as §1

In the next data set the test system is Enterococcus faecium. As for the experimental part:
as §1

A short description of a further data set: in vitro. The settings on record: human, human serum (50% v/v in water), t1/2 values, proteolysis in human serum, 37 °C, 24 h incubation.
The subject of the next data set is horse red blood cells. Put plainly: Hemolytic activity (hemoglobin release). Conditions: pH 7.4. As for the experimental part: Both peptides were tested for hemolytic activity on horse red blood cells (RBCs), as described earlier. Briefly, fresh RBCs in PBS (pH 7.4) were first centrifuged 3 × 1500× g for 5 min, then diluted 1:10 with PBS to yield an RBC concentration of ~5 × 10^8 cells/mL. RBCs were then incubated for 1 h at 37 °C with 2-fold serial dilutions of PaD or Ct_PaD covering a 0.24–250 μM concentration range. Next, 0.1% TritonX100 and PBS were used as positive and negative controls, respectively. After incubation, samples were centrifuged at 1500× g for 10 min at room temperature and the supernatant (60 μL) was transferred to a flat-bottomed 96-well polypropylene microplate (Greiner, Frickenhausen, Germany). Hemoglobin release was then measured as OD at 540 nm in a VICTOR3 microplate reader (Perkin Elmer, Waltham, MA, USA). Percent hemolysis was calculated as indicated below (Equation (1)).

The next data set has as its system human erythrocytes. Conditions: natural panusin; cited from earlier work. An excerpt: Panusin, isolated from hemocytes of the spiny lobster Panulirus argus (PaD), is representative of those invertebrate peptides, which are related to mammalian β-defensins. PaD is comprised of 39 amino acid residues that fold into a well-described cysteine-stabilized αβ (CSαβ) motif, consisting of an α-helix and three antiparallel […]. These […] are strongly stabilized by three disulfide bonds. […] These properties mark it a ...

A short description of the next data set: MTT cytotoxicity assay. It counts as cell-based. The settings on record: human. As to the method:
MRC-5 cells were cultured in Eagle’s minimum essential medium (MEMα), supplemented with 10% (v/v) fetal bovine serum (FBS) and a 1% penicillin (100 IU/mL)/streptomycin (100 μg/mL) solution, and maintained at 37 °C in a humidified atmosphere with 5% CO2. After cells were grown, they were seeded into 96-well plates at 3 × 10^4 cells/well and cultured overnight to adhere to the plate. Subsequently, adherent cells were incubated for 4 h under standard conditions (5% CO2, 37 °C) with 2-fold serial dilutions of each peptide in a 1.56–200 μM concentration range. Following incubation, the peptide-containing medium was replaced with MEM supplemented with FBS and 3-(4,5-dimethylthiazol-2-yl)-2,5 diphenyltetrazolium bromide (MTT) at 0.4 mg/mL, and the cells were further incubated for 120 min. Formazan crystals in live cells were detected after disruption with 200 μL of DMSO by OD measurement at 570 nm in a Tecan microplate reader. […] Data are the average of three independent replicates.
For orientation: Formazan colour is commonly taken as a measure of viable cells.

Structures are written as SMILES. Converted amounts (≈) assume the structure as drawn. Bridge positions count the residues as written; N and C are the ends. Peptide text beside a SMILES is read from it.

Procedure for in vitro: Peptide samples (500 μL, 500 μM in H2O) were mixed and incubated with 500 μL of human serum (Sigma-Aldrich, St. Louis, MO, USA) for 24 h at 37 °C. Aliquots (120 μL) were taken at 0, 30, 120, 360, 720, and 1440 min and treated with 20 μL of trichloroacetic acid (15% (v/v) in H2O). The suspension was centrifuged for 30 min at 13,000 rpm, 4 °C, and the supernatant was analyzed by RP-HPLC as described above. The unaltered peptide was determined by RP-HPLC peak integration, expressed as the percent of the amount at t0, and data were fitted to a one-phase exponential decay model using GraphPad Prism 8.01 to estimate half-life time (t1/2). Results are the average of three independent runs.

For the molecule `CC(C)C[C@@H]1NC(=O)[C@H](CCCNC(=N)N)NC(=O)[C@H](CC(N)=O)NC(=O)CNC(=O)[C@H](Cc2ccc(O)cc2)NC(=O)[C@@H]2CCCN2C(=O)[C@@H]2CSSC[C@@H](C(=O)N[C@@H](CCCNC(=N)N)C(=O)N[C@@H](CCCNC(=N)N)C(=O)N[C@@H](CO)C(=O)N[C@@H](Cc3ccc(O)cc3)C(N)=O)NC(=O)[C@@H]3CSSC[C@H](NC(=O)[C@H](CC(=O)O)NC(=O)CNC(=O)[C@@H](NC(=O)[C@H](Cc4ccc(O)cc4)NC(=O)[C@@H](N)CO)C(C)C)C(=O)NCC(=O)N[C@@H](CO)C(=O)N[C@@H](CC(N)=O)C(=O)NCC(=O)NCC(=O)N[C@@H](CO)C(=O)N[C@@H](CSSC[C@H](NC(=O)[C@H](Cc4ccccc4)NC(=O)[C@H](Cc4ccc(O)cc4)NC(=O)[C@H](CC(N)=O)NC1=O)C(=O)N1CCC[C@H]1C(=O)N[C@@H](CC(C)C)C(=O)NCC(=O)N[C@@H](CCCNC(=N)N)C(=O)N[C@@H]([C@@H](C)O)C(=O)N3)C(=O)N[C@@H](C(C)C)C(=O)N[C@@H](CO)C(=O)N[C@@H](CO)C(=O)N[C@@H](Cc1ccc(O)cc1)C(=O)N2` [PaD] (H-SYVGDCGSNGGSCVSSYCPYGNRLNYFCPLGRTCCRRSY-NH2; disulfide 6-34, 13-28, 18-35), the MIC (usually the least concentration at which growth counts as inhibited) amounted to 25 µM (≈ 106 µg/mL) in the data set on Staphylococcus aureus (2 h, pH 7.4); 25 µM (≈ 106 µg/mL) against Pseudomonas aeruginosa (2 h, pH 7.4); 12.5 µM (≈ 53.2 µg/mL) with Escherichia coli (2 h, pH 7.4); 25 µM (≈ 106 µg/mL) with Acinetobacter baumannii (2 h, pH 7.4); 12.5 µM (≈ 53.2 µg/mL) with Micrococcus luteus (2 h, pH 7.4); 25 µM (≈ 106 µg/mL) against Enterococcus faecium (2 h, pH 7.4). In addition, the MBC (commonly the smallest concentration meeting the test's criterion for killing) in the data set on Staphylococcus aureus (24 h) was determined as 25 µM (≈ 106 µg/mL); against Pseudomonas aeruginosa (24 h), 25 µM (≈ 106 µg/mL); with Escherichia coli (24 h), 12.5 µM (≈ 53.2 µg/mL); in the data set with Acinetobacter baumannii (24 h), 25 µM (≈ 106 µg/mL); in the data set on Micrococcus luteus (24 h) it was 12.5 µM (≈ 53.2 µg/mL); against Enterococcus faecium (24 h), 25 µM (≈ 106 µg/mL). Also, the half-life (commonly how long it takes for the measured level to halve) at 250 µM in the data set “in vitro” is greater than 24 h. For the same molecule, in the data set on horse red blood cells, the “Hemolysis % (250 µM peptide)” value is 0.6 ± 0.02%. The “Hemolytic effect on human erythrocytes” value with human erythrocytes is recorded as “no hemolytic effect”. Besides, in the data set “MTT cytotoxicity assay”, half-maximal inhibition (IC50 at 4 h) was put at 145 ± 1.7 µM.

The values above are taken from paper PMC10301333, “The C-Terminus of Panusin, a Lobster β-Defensin, Is Crucial for Optimal Antimicrobial Activity and Serum Stability” (Pharmaceutics, 2023).
